Experiment: Water solubility: distilled water added to a weighed amount until a clear solution was obtained
Assay type: physicochemical
Conditions: for solubility: thermodynamic from solid, distilled water, weight in mg divided by volume of the clear solution in mL
Procedure: Measurement of the water solubility of the test compounds is accomplished by using methods well known to those skilled in the art. Specifically, to a weighed amount of the test compound of the example compound Formula I (Ib) distilled water was added in small proportions until a clear solution was obtained. The total volume of the solution is measured. The water solubility is calculated by dividing the weight of the salt, in milligrams (mg), by the volume of the solution, in mL. […] The compound of Formula I (Ib) is therefore, at least 368 times more soluble in water than EPA itself. This is a clear indication of an unexpectedly high degree of bioavailability of the compositions of the invention. Highly water soluble medicinal preparations, when administered orally, result in efficient absorption from the gastrointestinal tract in to systemic circulation. Furthermore, water soluble preparations are especially suitable for parenteral administration.

Row | times more soluble in water than EPA (ratio of water solubility versus EPA) | solubility [mg/mL] | Structure (SMILES)
1 | at least 368 times | 68.6 | CC/C=C\C/C=C\C/C=C\C/C=C\C/C=C\CCCC(=O)OCC1OC(O)(CO)C(O)C1O (stereo not drawn) [Formula I (Ib)]
2 | – | < 0.2 | CC/C=C\C/C=C\C/C=C\C/C=C\C/C=C\CCCC(=O)O [EPA, Eicosapentaenoic Acid, reference compound]
